{
  "source": "paper PMC6246682",
  "about": "“Structural Basis of Tau Interaction With BIN1 and Regulation by Tau Phosphorylation” (Frontiers in Molecular Neuroscience, 2018)",
  "key": {"BIN1 SH3 domain": {"molecular_target": "T1, BIN1 SH3 domain (Homo sapiens, UniProt O00499)", "T1 construct": "The BIN1 isoform 1 and BIN1 SH3 domain were expressed and purified as previously described; made in house", "T1 sequence (O00499 520-593 limits assumed)": "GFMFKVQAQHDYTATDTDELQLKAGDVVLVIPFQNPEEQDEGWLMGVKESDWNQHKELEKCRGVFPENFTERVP", "assay": "NMR chemical shift perturbation titration, dissociation constant determination", "type": "binding", "conditions": "peptide/BIN1 SH3 molar ratios 0, 0.5, 1, 2, 4, 8 and 12; 1H-15N HSQC", "method": "The weighted average chemical shift differences were calculated as described by [Garrett et al. (1997)] - i.e., (ΔH^2 + (ΔN×0.2)^2)^1/2, with ΔH and ΔN the chemical shift changes for ^1H and ^15N, respectively. Dissociation constants were obtained by fitting the chemical shift perturbation data to the following equation Δδobs = Δδmax(a + b + Kd−((a + b + Kd)^2−4ab)^1/2)/2a where Δδobs is the weighted average of the chemical shifts in the free and bound states and Δδmax is the maximal signal change upon saturation. Kd is the dissociation constant, a and b are the total peptide and BIN1 SH3 concentrations, respectively. Kd were averaged based on chemical shift perturbations of 7 distinct resonances.\nLabeled resonances correspond to the major chemical shift perturbations, color coded as in Figure 4A. Enlarged regions of the superimposed spectra show 3 resonances involved in the interaction.\nDet ail o f o ver la id 1H-15N HSQC spe ct ra o f BIN1 SH3 do ma in, in t he prese nce o f increa s ing a mo unt o f Tau(210-240) pept ide, mo lar rat io s pe pt ide/BIN1 SH3 0, 0.5, 1, 2, 4, 8 and 12 (co lo r sca le fro m purp le t o gray), o r o f p ho spho-Tau(210-240) pept ide, sa me mo lar rat ios (sa me co lo r sca le). A spect rum is reco rded fo r each t it rat io n po int . […]"}, "BIN1 isoform 1": {"test_system": "BIN1 isoform 1", "assay": "1H-15N HSQC competition with intramolecular BIN1 SH3/CLAP interaction", "type": "binding", "conditions": "1H-15N HSQC of BIN1 isoform 1 (0.08 mM), 20°C, 900 MHz, molar ratio 1:8", "protocol": "NMR experiments were recorded on Bruker 950-MHz, 900-MHz, or 600-MHz spectrometers all equipped with a triple-resonance cryogenic probe. NMR measurements were performed in 50 mM sodium phosphate buffer, pH 7.3, 30 mM NaCl, 3 mM DTT and 10% D2O (NMR buffer). BIN1 SH3 domain backbone assignment has been previously reported ([Malki et al., 2017]). […] For side-chain assignment, additional 3D^15N NOESY-HSQC, 3D^15N-edited TOCSY, 3D (H)CCH TOCSY, and 3D H(C)CH TOCSY experiments were recorded. A 3D ^13C-edited NOESY was further used for side-chain assignment validation. All assignment experiments were recorded at 5°C. Chemical shift values (Supplementary Table S1) were directly transferred at 20°C, because the differences of chemical shift values were small between 5 and 20°C. […] BIN1 isoform 1 ^1H-^15N HSQC spectra were recorded at 20°C at 900 MHz (0.08 mM sample) with 3096 points (direct) and 280 points (indirect), for spectral width of 14 ppm and 26 ppm, respectively, and 256 scans. A 3D F1 ^13C/^15N-filtered and F3 ^15N-edited NOESY-HSQC, with WATERGATE (WATER suppression by GrAdient-Tailored Excitation) scheme ([Piotto et al., 1992]), named noesyhsqcf3gpwgx13d, part of the Bruker pulse sequence library, was recorded at 20°C at 950 MHz for the detection of intermolecular NOEs to amide groups. […] Spectra were processed using TopSpin software (Bruker) and analyzed by CcpNmr Analysis ([Vranken et al., 2005]).\nAs NMR is sensitive to mobility, this equilibrium translated into detection of BIN1 SH3 domain signals only upon its release from the intramolecular interaction ([Malki et al., 2017]). […] Consequently, in the presence of the phosphorylated Tau peptide (210–240), BIN1 SH3 domain remained immobilized by the intramolecular interaction with BIN1 isoform1 CLAP domain, mainly adopting the closed conformation.\n(A) ^1H-^15N HSQC spectrum of BIN1 isoform 1 (112 KDa, homodimer). […] (B) ^1H-^15N HSQC spectra of BIN1 isoform 1 in the presence of phospho-Tau (210–240), molar ratio 1:8. The signals corresponding to the isolated BIN1 SH3 domain were barely detected."}},
  "data": [
    {"substance": "phosphorylated Tau (210–240): Tau (210–240) phosphorylated by CDK2/CycA3; T212, T231, S235 full, T217 half-phosphorylated", "values": [
      {"measurement": "saturation / affinity in titration", "setting": "BIN1 SH3 domain", "value": "lo wer a ffin it y"},
      {"measurement": "competition with intramolecular BIN1 SH3/CLAP interaction", "setting": "BIN1 isoform 1", "value": "not able to displace the intramolecular interaction of BIN1 SH3 with BIN1 CLAP domain"},
      {"measurement": "competition with intramolecular BIN1 SH3/CLAP interaction", "setting": "BIN1 isoform 1; listed as Phospho-Tau (210–240)", "value": "cannot compete with the intramolecular interaction of BIN1 SH3 with the CLAP domain"},
      {"measurement": "competition with intramolecular BIN1 SH3/CLAP interaction", "setting": "BIN1 isoform 1; listed as Tau (210–240) phosphorylated at four different sites (T212, T217, T231, and S235)", "value": "unable to compete with the intramolecular interaction of BIN1 SH3 domain with its CLAP domain"},
      {"measurement": "competition with intramolecular BIN1 SH3/CLAP interaction", "setting": "BIN1 isoform 1; listed as Tau (210–240) phosphorylated at multiple sites", "value": "not able to compete with the intra-molecular interaction of BIN1 SH3 with the CLAP domain as efficiently as its unphosphorylated counterpart"}
    ]}
  ]
}
